Several values for one entry are separate records, joined by “and”; a condition that tells them apart may be missing. Equal values may be shown once.
Columns and labels:
[1] = In vitro ABTS radical scavenging assay; conditions: mean ± SEM, n = 3; 30 min incubation, absorbance at 734 nm
Description: ABTS (2,2′-azinobis (3-ethylbenzothiazoline-6-sulfonic acid) diammonium salt) assay was used for the antioxidant estimation. Though many methods are available, this appears to be the most popular because of its operational simplicity, short experimental time, and the employment of the inexpensive spectrophotometer.
Antioxidant activity was tested in the dark room by ABTS assay. UV-1800 (Shimadzu Corporation, Kyoto, Japan) was used to measure UV absorption. Hellma’s 104.600-QC Quartz cell was used as a UV cell. IC50 values were obtained using OriginPro 8.0 software (OriginLab Corporation, Northampton, MA, USA).
Antioxidant assay using ABTS
The radical cation was prepared by mixing an equal amount of 7mM ABTS (2,2’-azino-bis(3-ethylbenzothiazoline-6-sulphonic acid)) stock solution with 2.45 mM potassium persulfate stock solution. This mixture was stored at 0 °C for 12 hours under darkness. The above ABTS […]
Then these solutions were diluted with methanol to 500 µM, 250 µM, 125 µM, 62.5 µM, […]
tubes, 0.9 mL of the ABTS solution and 0.1 mL of the compound solution were mixed under darkness. After 30 min of incubation, the UV absorption at 734 nm was measured. Control was used the mixture of 0.9 mL ABTS and 0.1 mL methanol. […]
(§1) Statistical analysis. Statistical significance was analyzed using the GraphPad Prism 5 software (GraphPad Software, San Diego, CA, USA). The comparison of two groups was performed by the unpaired t test. Values of *P less than 0.05, **P less than 0.01 and ***P less than 0.001 were considered statistically significant.

[2] = test system: RAW 264.7 cells; assay: Cell viability (MTT) assay; type: cell-based; conditions: for Cell Viability LD50: 24 h
Description: In the pathogenesis of inflammatory-related disorders, NO is recognized as one of the important mediators. […] Herein, to understand the anti-inflammatory properties of the resveratrol analogues, we studied their inhibitory effects against NO production in LPS-treated RAW 264.7 cells. Although it is not possible to measure NO quantitatively in a biological environment due to its rapid oxidation to NO2 (nitrite), short physiological half-life and presence of other free radicals, NO secretion activity in cells is indirectly determined by Griess assay counting its stable product NO2 levels. The inhibitory effects of 1–7 on NO production were collected in Table 2. […] Cell viability was not affected up to 50 μM except for 2. We also applied in vitro efficacy index (iEI) paradigm, the ratio of toxicity (LD50)/anti-inflammatory potency (ED50), to confirm that the anti-inflammatory activity is in the viable cells only. […] On the whole, compounds 5 and 7 have much-improved iEI values compared to any other compounds. […]
NO assay and cell viability test
Murine macrophage, Raw 264.7 cells were grown in Dulbecco’s modified Eagle’s medium (Gibco, Carlsbad , CA, USA), supplemented with 2 mM glutamine, antibiotics (100 U/mL of penicillin A and […] of streptomycin) and 10% FBS (Gibco). Cells were cultured in 96-well plates (5×10^4 cells), treated with serial dilutions of compound (3.125-100 µM) and stimulated with LPS (1 µg/mL) for 24 h at 37°C. After incubation, the supernatant was collected and the amount of nitrite was quantified using the Griess Reagent System ( Promega, Fitchburg, WI, USA ). For the correction of NO production, cell viability was measured using the CellTiter 96® Aqueous one solution cell proliferation assay kit (Promega). Cells were incubated with varying amounts of compound for 24 h, then MTS (tetrazolium salt) reagent was added to the plates. After 1h, the absorbance at 490 nm was read using a microplate reader (Thermo Scientific, Waltham, MA, USA).
as §1

[3] = test system: IL-1β gene expression in LPS-stimulated RAW 264.7 cells; assay: Pro-inflammatory cytokine gene expression by endpoint RT-PCR, IL-1β; type: cell-based, Murine; conditions: 12.5~50 μM compound, 1 μg/mL LPS, 24 h
Description: (§2) We have further investigated whether resveratrol and its analogues can reduce the inflammatory activity of macrophages. For this purpose, we examined the downregulation of pro-inflammatory cytokine gene expression of LPS-stimulated RAW 264.7 cells by potent inhibitors of NO production (1, 2, 5, and 7) (Figure 2). […] Treatment with 50 μM of analogue 2 was highly toxic to the cells.
(§3) Figure 2 Inhibitory effects of 1–7 on pro-inflammatory cytokine production of activated macrophage cells. RAW 264.7 cells were treated with 1 μg/mL LPS for 24 h in the presence of the indicated amounts (12.5~50 μM) of compounds. Gene expression levels were analyzed by endpoint reverse transcriptase-polymerase chain reaction and 1.5% agarose gel electrophoresis. GAPDH was used as a control.
(§4) Reverse transcriptase-polymerase chain reaction (RT-PCR)
(§5) Total RNA was isolated from Raw 264.7 cells using TRIzol reagent (Invitrogen, Waltham,
(§6) MA, USA). Relative levels of pro-inflammatory cytokine gene expression were tested by
(§7) 1.5% agarose gel electrophoresis after endpoint RT-PCR using GoScript™ Reverse
(§8) Transcriptase (Promega). The sequences of the sense and anti-sense primers used for
(§9) amplification are as follows. IL-1β, 5’-[…]-3’, 5’-
(§10) TNF-α, 5’-[…]-3’, 5’-GGCACCA
(§11) -3’. As a control, glyceraldehyde-3-phosphate dehydrogenase
(§12) (GAPDH) gene was also amplified using 5’-[…]-3’, 5’-
(§13) (1 picture or pasted object on this page, not shown here)

[4] = test system: IL-6 gene expression in LPS-stimulated RAW 264.7 cells; assay: Pro-inflammatory cytokine gene expression by endpoint RT-PCR, IL-6; type: cell-based, Murine; conditions: 12.5~50 μM compound, 1 μg/mL LPS, 24 h
Description: as §2, §3, §4, §5, §6, §7, §8, §9, §10, §11, §12, §13

[5] = test system: TNF-α gene expression in LPS-stimulated RAW 264.7 cells; assay: Pro-inflammatory cytokine gene expression by endpoint RT-PCR, TNF-α; type: cell-based, Murine; conditions: 12.5~50 μM compound, 1 μg/mL LPS, 24 h
Description: as §2, §3, §4, §5, §6, §7, §8, §9, §10, §11, §12, §13

[6] = test system: NO production in LPS-treated RAW 264.7 cells; assay: Inhibition of NO production (Griess assay, nitrite) in LPS-treated RAW 264.7 cells; type: cell-based, Murine; conditions: LPS 1 μg/mL, 24 h, NO2 released into culture media, mean ± SEM, n = 3
Description: In the pathogenesis of inflammatory-related disorders, NO is recognized as one of the important mediators. […] Herein, to understand the anti-inflammatory properties of the resveratrol analogues, we studied their inhibitory effects against NO production in LPS-treated RAW 264.7 cells. Although it is not possible to measure NO quantitatively in a biological environment due to its rapid oxidation to NO2 (nitrite), short physiological half-life and presence of other free radicals, NO secretion activity in cells is indirectly determined by Griess assay counting its stable product NO2 levels. The inhibitory effects of 1–7 on NO production were collected in Table 2. […] Cell viability was not affected up to 50 μM except for 2. […]
Anti-inflammatory activity was measured as the effect of compounds on inhibiting NO production versus cell viability. […]
Murine macrophage, Raw 264.7 cells were grown in Dulbecco’s modified Eagle’s medium (Gibco, Carlsbad , CA, USA), supplemented with 2 mM glutamine, antibiotics (100 U/mL of penicillin A and […] of streptomycin) and 10% FBS (Gibco). […] After incubation, the supernatant was collected and the amount of nitrite was quantified using the Griess Reagent System ( Promega, Fitchburg, WI, USA ). For the correction of NO production, cell viability was measured using the CellTiter 96® Aqueous one solution cell proliferation assay kit (Promega). […]

[7] = RAW 264.7 cells, mean ± SEM, n = 3

Row | Structure (SMILES) | IC50 [1] [µM] | Cell Viability LD50 ([2]; mouse) [µM] | Level of IL-1β gene expression [3] | Level of IL-6 gene expression [4] | Level of TNF-α gene expression [5] | Toxicity to the cells ([2]; 50 μM, LPS-stimulated RAW 264.7 cells, seen in the RT-PCR experiment (RNA degraded, no PCR amplification)) | Cell Viability LD50 [2, 7] [µM] | NO/MTT Assay ED50 [6]
1 | O=C1O[C@H]([C@@H](O)CO)C(O)=C1O [Ascorbic acid, reference compound] | 19.8 ± 0.934 |  |  |  |  |  |  | 
2 | Oc1ccc(/C=C/c2cc(O)cc(O)c2)cc1 [Compound 1, 3,5,4′-trihydroxy-trans-stilbene, reference compound] |  | 81.08 ± 9.258 | significantly reduced | significantly reduced | did not change |  |  | 
3 | Oc1cc(O)cc(/C=C/c2ccc3cc(O)ccc3c2)c1 [Compound 2] | 3.14 ± 0.445 |  | significantly reduced | significantly reduced | did not change | highly toxic | 28.82 ± 0.767 | 
4 | Oc1cc(O)cc(/C=C/c2cnc3cc(O)ccc3c2)c1 [Compound 3] | 3.57 ± 0.496 |  |  |  |  |  | 167.12 ± 13.652 | 
5 | Oc1cc(O)cc(/C=C/c2ccc3cc(O)ccc3n2)c1 [Compound 4] | 3.61 ± 0.253 |  |  |  |  |  | 123.47 ± 6.388 | 
6 | Oc1cc(O)cc(/C=C/c2cc3ccc(O)cc3cn2)c1 [Compound 5] | 2.81 ± 0.034 |  | significantly reduced | significantly reduced | did not change |  | 63.30 ± 1.139 | 13.08 µM and 13.08 ± 0.690 µM
7 | Oc1cc(O)cc(/C=C/c2cnc3cc(O)ccc3n2)c1 [Compound 6] | 3.1 ± 0.953 |  |  |  |  |  | 120.46 ± 4.237 | 
8 | Oc1cc(O)cc(/C=C/c2ncc3cc(O)ccc3n2)c1 [Compound 7] | 3.54 ± 0.714 |  | significantly reduced | significantly reduced | did not change |  | 92.58 ± 8.745 | 21.67 µM and 21.67 ± 1.101 µM

From PMC7865754, “Design and Synthesis of π-Extended Resveratrol Analogues and In Vitro Antioxidant and Anti-Inflammatory Activity Evaluation” (Molecules, 2021)
